Data taken from ChEMBL document CHEMBL2074370, “Are MDCK cells transfected with the human MDR1 gene a good model of the human intestinal mucosa?” (Pharm Res, 2002).

Columns and labels:
[1] = biological target: ATP-dependent translocase ABCB1 (Homo sapiens, UniProt P08183); assay: TP_TRANSPORTER: inhibition of Digoxin transepithelial transport (basal to apical) in MDR1-expressing MDCK cells; type: functional, cell-based
[2] = test system: CC[C@]1(O)C[C@@H]2CN(CCc3c([nH]c4ccccc34)[C@@](C(=O)OC)(c3cc4c(cc3OC)N(C)[C@H]3[C@@](O)(C(=O)OC)[C@H](OC(C)=O)[C@]5(CC)C=CCN6CC[C@]43[C@@H]65)C2)C1; assay: TP_TRANSPORTER: transepithelial transport (basal to apical) in MDR1-expressing MDCK cells; type: functional, cell-based

Chain of ATP-dependent translocase ABCB1 (P08183 whole entry): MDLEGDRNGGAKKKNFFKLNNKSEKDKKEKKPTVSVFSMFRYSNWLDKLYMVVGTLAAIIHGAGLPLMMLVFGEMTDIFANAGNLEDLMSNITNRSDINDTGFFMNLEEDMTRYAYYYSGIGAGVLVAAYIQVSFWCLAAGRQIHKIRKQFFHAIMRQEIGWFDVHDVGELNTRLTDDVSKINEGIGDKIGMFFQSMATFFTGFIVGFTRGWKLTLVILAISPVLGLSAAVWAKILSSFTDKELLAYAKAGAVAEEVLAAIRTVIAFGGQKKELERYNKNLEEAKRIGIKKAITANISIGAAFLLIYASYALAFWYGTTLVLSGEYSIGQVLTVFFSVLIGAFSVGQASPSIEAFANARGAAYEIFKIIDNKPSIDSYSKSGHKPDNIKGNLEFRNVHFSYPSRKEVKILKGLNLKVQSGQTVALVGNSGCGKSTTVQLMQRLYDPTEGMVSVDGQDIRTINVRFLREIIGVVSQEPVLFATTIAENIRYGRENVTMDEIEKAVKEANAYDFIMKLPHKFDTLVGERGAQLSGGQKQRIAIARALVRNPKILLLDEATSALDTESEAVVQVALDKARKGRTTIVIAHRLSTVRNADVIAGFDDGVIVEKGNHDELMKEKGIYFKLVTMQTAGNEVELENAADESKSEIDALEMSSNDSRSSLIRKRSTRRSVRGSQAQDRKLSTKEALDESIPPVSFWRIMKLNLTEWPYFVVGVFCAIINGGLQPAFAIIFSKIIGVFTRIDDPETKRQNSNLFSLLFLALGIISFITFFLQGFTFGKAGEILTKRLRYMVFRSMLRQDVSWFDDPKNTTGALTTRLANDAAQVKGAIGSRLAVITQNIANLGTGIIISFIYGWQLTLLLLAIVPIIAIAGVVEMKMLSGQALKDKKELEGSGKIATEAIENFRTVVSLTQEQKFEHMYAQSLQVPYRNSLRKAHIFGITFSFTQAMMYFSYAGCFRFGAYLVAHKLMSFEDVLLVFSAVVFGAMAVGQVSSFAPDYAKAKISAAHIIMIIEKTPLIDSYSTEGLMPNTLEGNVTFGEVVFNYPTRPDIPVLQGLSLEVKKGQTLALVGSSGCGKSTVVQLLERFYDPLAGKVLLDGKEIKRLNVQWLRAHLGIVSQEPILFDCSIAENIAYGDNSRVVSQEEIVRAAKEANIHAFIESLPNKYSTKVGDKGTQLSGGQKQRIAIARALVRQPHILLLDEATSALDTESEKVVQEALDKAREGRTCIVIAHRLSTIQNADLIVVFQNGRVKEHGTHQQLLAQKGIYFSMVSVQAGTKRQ

In the case of COc1cccc2c1C(=O)c1c(O)c3c(c(O)c1C2=O)C[C@@](O)(C(C)=O)C[C@@H]3O[C@H]1C[C@H](N)[C@H](O)[C@H](C)O1 [DAUNORUBICIN], the Ki [1] is reported as 111 µM.
Work on “ATP-dependent translocase ABCB1 (Homo sapiens)” yielded a Km [2] of 253 µM.
CC[C@]1(O)C[C@H]2CN(CCc3c([nH]c4ccccc34)[C@@](C(=O)OC)(c3cc4c(cc3OC)N(C=O)[C@H]3[C@@](O)(C(=O)OC)[C@H](OC(C)=O)[C@]5(CC)C=CCN6CC[C@]43[C@@H]65)C2)C1 [VINCRISTINE] gave a Ki [1] of 213 µM.
COC(=O)[C@H]1[C@H]2C[C@@H]3c4[nH]c5cc(OC)ccc5c4CCN3C[C@H]2C[C@@H](OC(=O)c2cc(OC)c(OC)c(OC)c2)[C@@H]1OC [RESERPINE] was tested, and the Ki [1] was 11.5 µM.
